{"source": "patent US8916523B2", "about": "“VIP fragments and methods of use” (Vectus Biosystems Limited, priority 2005, dated 2014)", "key": {"[1]": {"system": "Spontaneous Hypertensive Rats (SHR)", "assay": "Effect of VIP fragment treatment on blood pressure (tail cuff plethysmography) in animal model of hypertension", "format": "in vivo, rat", "settings": "for reduction in systolic blood pressure (SBP) relative to the control solution: SHR on 2.2% salt diet for 4 weeks, peptide infused at 5 pmol/kg/min for 4 weeks, FIGS. 6-9", "description": "To determine whether VIP and fragments were effective in controlling blood pressure, Spontaneous Hypertensive Rats (SHR) were acclimated to blood pressure measurement by tail cuff plethysmography and then they were placed on a 2.2% salt diet for 4 weeks.\nThe rats were randomized to Control (Hartman's Solution) vehicle infusion, VIP(1-28) ([…] (SEQ ID NO: 1), VIP(4-10) (Ala-Val-Phe-Thr-Asp-Asn-Tyr) (SEQ ID NO: 29), VIP(4-12) (Ala-Val-Phe-Thr-Asp-Asn-Tyr-Thr-Arg) (SEQ ID NO: 31), VIP(4-16) (Ala-Val-Phe-Thr-Asp-Asn-Tyr-Thr-Arg-Leu-Arg-Lys-Gln) (SEQ ID NO: 35), VIP(4-20) (Ala-Val-Phe-Thr-Asp-Asn-Tyr-Thr-Arg-Leu-Arg-Lys-Gln-Met-Ala-Val-Lys) (SEQ ID NO: 39), VIP(4-24) ([…] (SEQ ID NO: 43), VIP(4-28) ([…] (SEQ ID NO: 90), VIP(6-10) (Phe-Thr-Asp-Asn-Tyr) (SEQ ID NO: 66), VIP(6-12) (Phe-Thr-Asp-Asn-Tyr-Thr-Arg) (SEQ ID NO: 68), VIP(6-16) (Phe-Thr-Asp-Asn-Tyr-Thr-Arg-Leu-Arg-Lys-Gln) (SEQ ID NO: 72), VIP(6-20) (Phe-Thr-Asp-Asn-Tyr-Thr-Arg-Leu-Arg-Lys-Gln-Met-Ala-Val-Lys) (SEQ ID NO: 76), VIP(6-24) (Phe-Thr-Asp-Asn-Tyr-Thr-Arg-Leu-Arg-Lys-Gln-Met-Ala-Val-Lys-Lys-Tyr-Leu-Asn) (SEQ ID NO: 80), VIP(6-28) ([…] (SEQ ID NO: 84), VIP(16-20) (Gln-Met-Ala-Val-Lys) (SEQ ID NO: 20), VIP(16-24) (Gln-Met-Ala-Val-Lys-Lys-Tyr-Leu-Asn) (SEQ ID NO: 93), VIP(16-28) (Gln-Met-Ala-Val-Lys-Lys-Tyr-Leu-Asn-Ser-Ile-Leu-Asn) (SEQ ID NO: 88), VIP(1-12) (His-Ser-Asp-Ala-Val-Phe-Thr-Asp-Asn-Tyr-Thr-Arg) (SEQ ID NO: 91) and VIP(10-28) (Tyr-Thr-Arg-Leu-Arg-Lys-Gln-Met-Ala-Val-Lys-Lys-Tyr-Leu-Asn-Ser-Ile-Leu-Asn) (SEQ ID NO: 92), VIP(4-10) (Ala-Val-Phe-Thr-Asp-Asn-Tyr) (SEQ ID NO: 29).\nEach peptide was infused at 5 pmol/kg/min\nBlood pressure was measured by tail cuff plethysmography twice weekly for 4 weeks."}, "[2]": {"system": "WKY rats on a high salt diet", "assay": "Effect of VIP fragment treatment on regression of existing myocardial fibrosis", "format": "in vivo, rat", "settings": "18 week old WKY rats after 4 weeks high salt diet and infusion 5 pmol/kg/min vs untreated 14 week old rats (zero time), preliminary results, FIG. 2", "description": "To determine whether VIP (6-16) (SEQ ID NO: 72), VIP(6-20) (SEQ ID NO: 76) and VIP(6-24) (SEQ ID NO: 80) infusion caused regression of existing fibrosis as well as prevented progression of fibrosis two groups of studies were performed. The degree of myocardial fibrosis in untreated 14 week old WKY rats was compared with the degree of fibrosis in 18 week old WKY rats after 4 weeks treatment with a high salt diet or a high salt diet plus L-NAME (10 mg/kg/day) and either VIP (6-16) (SEQ ID NO: 72), VIP(6-20) (SEQ ID NO: 76) and VIP(6-24) (SEQ ID NO: 80) (5 pmol/kg/min) or vehicle control infusion (see FIG. 2)\nThe regression of fibrosis may be due to either reduction in collagen formation or enhancement of its degradation."}, "myocardial fibrosis": {"system": "myocardial fibrosis", "settings": "disclosed in PCT/AU2005/000835; cited from earlier work"}}, "note": "Ends that are not written are not given here."}
{"substance": "AVFTDNYTR [VIP(4-12)]", "values": [{"measurement": "reduction in systolic blood pressure (SBP) relative to the control solution", "setting": "[1]", "result": "significant reductions in SBP"}]}
{"substance": "AVFTDNYTRLRKQ [VIP(4-16)]", "values": [{"measurement": "reduction in systolic blood pressure (SBP) relative to the control solution", "setting": "[1]", "result": "significant reductions in SBP"}, {"measurement": "relative efficacy in reducing SBP compared with VIP(4-12) and VIP(4-20)", "setting": "[1]; SHR on high salt diet, 5 pmol/kg/min for 4 weeks, FIG. 6", "result": "less efficacious"}]}
{"substance": "AVFTDNYTRLRKQMAVK [VIP(4-20)]", "values": [{"measurement": "reduction in systolic blood pressure (SBP) relative to the control solution", "setting": "[1]", "result": "significant reductions in SBP"}]}
{"substance": "AVFTDNYTRLRKQMAVKKYLN [VIP(4-24)]", "values": [{"measurement": "reduction in systolic blood pressure (SBP) relative to the control solution", "setting": "[1]", "result": "significant reductions in SBP"}]}
{"substance": "AVFTDNYTRLRKQMAVKKYLNSILN [VIP(4-28)]", "values": [{"measurement": "reduction in systolic blood pressure (SBP) relative to the control solution", "setting": "[1]", "result": "significant reductions in SBP"}]}
{"substance": "FTDNYTRLRKQ [VIP(6-16)]", "values": [{"measurement": "regression of myocardial fibrosis", "setting": "[2]", "result": "regression of myocardial fibrosis"}]}
{"substance": "FTDNYTRLRKQMAVK [VIP(6-20)]", "values": [{"measurement": "reduction in systolic blood pressure (SBP) relative to the control solution", "setting": "[1]", "result": "significant reductions in SBP"}]}
{"substance": "FTDNYTRLRKQMAVKKYLN [VIP(6-24)]", "values": [{"measurement": "reduction in systolic blood pressure (SBP) relative to the control solution", "setting": "[1]", "result": "significant reductions in SBP"}]}
{"substance": "His-Ser-Asp-Ala-Val-Phe-Thr-Asp-Asn-Tyr-Thr-Arg-Leu-Arg-Lys-Gln-Met-Ala-Val-Lys-Lys-Tyr-Leu-Asn-Ser-Ile-Leu-Asn (HSDAVFTDNYTRLRKQMAVKKYLNSILN; listed as Homo sapiens) [VIP, reference compound]", "values": [{"measurement": "reduction in systolic blood pressure (SBP) relative to the control solution", "setting": "[1]", "result": "not seen to have any significant effect in reducing SBP"}]}
{"substance": "Phe-Thr-Asp-Asn-Tyr-Thr-Arg-Leu-Arg-Lys-Gln-Met-Ala-Val-Lys-Lys-Tyr-Leu-Asn-Ser-Ile-Leu-Asn (FTDNYTRLRKQMAVKKYLNSILN; listed as Homo sapiens) [VIP(6-28), VIP fragment described earlier in PCT/AU2005/000835, not included in the present invention, reference compound]", "values": [{"measurement": "effectiveness for preventing myocardial fibrosis", "setting": "myocardial fibrosis", "result": "effective for preventing myocardial fibrosis"}, {"measurement": "reduction in systolic blood pressure (SBP) relative to the control solution", "setting": "[1]", "result": "significant reductions in SBP"}]}
